The text below walks through data of US11045554B1 (National Technology & Engineering Solutions of Sandia, LLC, priority 2018, dated 2021).

≈ marks a conversion by molar mass, not a printed value.

In one series the test system is HeLa cells. It is filed as cell-based.
The conditions of series [1]: pH 7.4; cited from earlier work.
The subject of series [2] is VEEV (ZPC738 virulent strain). Nature of the series: microbe, parasite or virus in culture. It is filed as cell-based, Venezuelan equine encephalitis virus (VEEV).
The test system of another series is TC-83 virus. Put plainly: microbe, parasite or virus in culture. Type of series: cell-based, Venezuelan equine encephalitis virus (VEEV).
For series [3], the system named is TC-83. Further details: species or system C3H/HeN mice. The note with it: mouse, in vivo.
Series [4] has as its system VEEV vaccine strain (TC-83). The note with it: cited from earlier work.
Series [5] concerns TC-83. The note with it: mouse, in vivo, ip; cited from earlier work.
[6] abbreviates: Venezuelan equine encephalitis virus, HeLa, 24 h.

For the compound `CO/C1=C\C(C)=C\[C@@H](C)[C@@H](O)[C@@H](C)C/C(C)=C/C=C/[C@H](OC)[C@@H]([C@@H](C)[C@@H](O)[C@H](C)[C@@]2(O)C[C@@H](O)[C@H](C)[C@@H](C(C)C)O2)OC1=O` [BAF, bafilomycin A], in the series with HeLa cells, the “LC-MSN internalization / uptake in presence of inhibitor (in words)” value is listed as “almost completely inhibited” and the “LC-MSN internalization in presence of inhibitor (in words)” value is recorded as “clearly inhibited”.

For `CN(C)CCCN1c2ccccc2Sc2ccc(Cl)cc21` [CPZ, chlorpromazine], in the series with HeLa cells, the “LC-MSN internalization in presence of inhibitor (in words)” value was “clearly inhibited” and the “reduction of the percentage of cells that internalized LC-MSNs” value is on record as 84%.

For `O=C(N/N=C/c1ccc(O)c(O)c1)c1cc2ccccc2cc1O` [DYN, dynasore], in the series with HeLa cells, the “LC-MSN internalization in presence of inhibitor (in words)” value is reported as “clearly inhibited” and the “reduction of the percentage of cells that internalized LC-MSNs” value amounted to 71%.

Regarding `Oc1ccc2ccccc2c1SSc1c(O)ccc2ccccc12` [IPA-3], in the series with HeLa cells, the “LC-MSN internalization in presence of inhibitor (in words)” value was “not”.

Take `CN1CCN(C)C(=Nc2ccc([N+](=O)[O-])cc2C(=O)Nc2ccccc2)C1` [ML336, 2-[(1,4-dimethylpiperazin-2-ylidene)amino]-5-nitro-N-phenylbenzamide]: in series [1], the solubility (in general, the dissolved amount per volume that the medium holds) was 40 µg/mL (≈ 109 µM). In addition, the “VEEV viral inhibition (in words)” value in series [2] (HeLa cells, 24 hours) is on record as “dose-dependent manner”. Further, the figures for the IC50 (in series [2] (setting [6]); in the series with TC-83 virus (setting [6])) were 15 nM and 163 nM, respectively. Moreover, the “TC-83 viral inhibition (in words)” value in the series with TC-83 virus (HeLa cells, increasing concentration or LC-MSN mass) is “dose-dependent manner”. Also, in the series on TC-83 [3], the “brain viral load / titer vs PBS (in words)” value is “not significantly different from PBS treated animals”. Also, in series [4] (at nanomolar concentrations), the “reduction of viral titer” value is 630,000 fold. In series [4], the EC90 (usually the concentration needed for an effect of 90%) was 170 nM. Also, in the series with TC-83 [5], the survival rate is on record as 71%.

With `CCCCCCCCCCCCCC(=O)O[C@@H]1[C@@H](C)[C@@]2(O)[C@@H](C=C(CO)C[C@]3(O)C(=O)C(C)=C[C@@H]23)[C@@H]2C(C)(C)[C@]12OC(C)=O` [PMA, phorbol 12-myristate 13-acetate], the “LC-MSN internalization in presence of inhibitor (in words)” value in the series with HeLa cells is listed as “not”.
